Results on 14 compounds are retold here after PubChem BioAssay (NCI).

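These data come from cells grown in 96-well plates and exposed to compound for 48 hours at five concentrations. GI50: concentration for 50% inhibition of growth. TGI: total growth inhibition.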

Test systems include NCI-H226 lung; SK-MEL-5 melanoma; HL-60(TB) leukemia; UACC-257 melanoma; HOP-92 NSCLC; TK-10 renal; NCI-H23 lung; A549 NSCLC; ACHN renal.
What all share (experiment): DTP human tumour cell line panel, 48 h

In the case of `COC1=CC(=O)c2c(cc3c(c2O)-c2c(OC)cc4cc5c(c(O)c4c2OC(=O)CC(C)(O)C3)C(=O)CC(C)(O)C5)C1=O` (stereo not drawn), the total growth inhibition concentration (TGI) (in general, the concentration giving total growth inhibition) in the assay on NCI-H226 lung amounted to 4.08 µM; in the assay on SK-MEL-5 melanoma, 0.606 µM; with HL-60(TB) leukemia, 5.56 µM; in the assay on UACC-257 melanoma it was 5.34 µM; in the assay with HOP-92 NSCLC, 4.12 µM; in the assay with TK-10 renal, 14.2 µM. In addition, the results for the TGI in the assay on NCI-H23 lung, in the assay on A549 NSCLC and with ACHN renal were 2.46 µM, 10.7 µM and 8.35 µM, respectively.
As for `OCCCc1cnco1`, the TGI with NCI-H226 lung, with SK-MEL-5 melanoma, in the assay on HL-60(TB) leukemia, in the assay with UACC-257 melanoma, in the assay with HOP-92 NSCLC and with TK-10 renal was greater than 100 µM throughout. Besides, the TGI in the assay with NCI-H23 lung, with A549 NSCLC and in the assay with ACHN renal was greater than 100 µM each time.
As to `O=C(N/C=C/C=C/Sc1ccccc1)OCc1ccccc1`, the total growth inhibition concentration (TGI) in the assay with NCI-H226 lung was 41.3 µM; in the assay on SK-MEL-5 melanoma, 31.6 µM; in the assay with HL-60(TB) leukemia, greater than 100 µM; in the assay on UACC-257 melanoma, 39.5 µM; in the assay on HOP-92 NSCLC it was 52.7 µM; in the assay on TK-10 renal, 64.7 µM. For the same compound, the TGI in the assay on NCI-H23 lung was 48.9 µM; with A549 NSCLC it was 59.8 µM; in the assay on ACHN renal, 68.9 µM.
For `Cc1cc2c(cc1C)[n+](=O)c(C(=O)CC(=O)C(=O)Nc1ccccc1C(C)C)c(C)n2[O-]`, the TGI in the assay on NCI-H226 lung is greater than 100 µM; with SK-MEL-5 melanoma it was greater than 100 µM; in the assay with HL-60(TB) leukemia it was greater than 100 µM; in the assay on UACC-257 melanoma it was 5.82 µM; with HOP-92 NSCLC it was greater than 100 µM; with TK-10 renal it was greater than 100 µM. The TGI in the assay on NCI-H23 lung, with A549 NSCLC and in the assay on ACHN renal was greater than 100 µM each time.
`O=C([O-])CCc1ccccc1.O=C([O-])CCc1ccccc1.O=C([O-])CCc1ccccc1.O=C([O-])CCc1ccccc1.[Mo+2].[Mo+2]`: the GI50 – broadly, the concentration giving 50% growth inhibition – with NCI-H226 lung is greater than 100 µM; with SK-MEL-5 melanoma it was greater than 100 µM; in the assay on HL-60(TB) leukemia, greater than 100 µM; with UACC-257 melanoma it was greater than 100 µM; in the assay with HOP-92 NSCLC, 43.4 µM; with TK-10 renal, greater than 100 µM. Moreover, the GI50 in the assay on NCI-H23 lung, in the assay on A549 NSCLC and with ACHN renal was greater than 100 µM throughout. Besides, the TGI in the assay on NCI-H226 lung, with SK-MEL-5 melanoma, in the assay with HL-60(TB) leukemia, with UACC-257 melanoma, with HOP-92 NSCLC and in the assay with TK-10 renal was greater than 100 µM each time. For the same compound, the TGI in the assay on NCI-H23 lung, in the assay with A549 NSCLC and in the assay on ACHN renal was greater than 100 µM throughout.
With `CC(C)(CN1CCCCC1)C(=O)CC(SCCN)c1ccc(Cl)cc1` (stereo not drawn), the TGI in the assay on NCI-H226 lung is 10.1 µM; with SK-MEL-5 melanoma, 3.25 µM; in the assay with UACC-257 melanoma it was 7.41 µM; in the assay with TK-10 renal it was 5.19 µM; in the assay with NCI-H23 lung, 5.8 µM; in the assay with A549 NSCLC, 10.2 µM. The same compound came in with a TGI in the assay with ACHN renal of 9.85 µM.
`N#Cc1c(-c2ccccc2)cc(-c2cccs2)c(C#N)c1N`: the TGI with SK-MEL-5 melanoma, in the assay with HL-60(TB) leukemia, in the assay on UACC-257 melanoma, in the assay on HOP-92 NSCLC, in the assay on TK-10 renal and with A549 NSCLC was greater than 100 µM throughout. The compound further yielded a TGI with ACHN renal greater than 100 µM.
In the case of `CCc1nc2ccccc2c(=O)n1/N=C(\N=Nc1ccc(Cl)cc1)c1ccccc1`, the total growth inhibition concentration (TGI) in the assay on NCI-H226 lung is 63.4 µM; in the assay with SK-MEL-5 melanoma, 44.6 µM; in the assay with HL-60(TB) leukemia it was greater than 100 µM; in the assay with UACC-257 melanoma it was 59.6 µM; with HOP-92 NSCLC, 46.2 µM; with TK-10 renal, 78.3 µM. Besides, the TGI is greater than 100 µM in the assay on NCI-H23 lung, 98.7 µM in the assay with A549 NSCLC and greater than 92.4 µM with ACHN renal.
For `Fc1ccc(C2SCc3nc4ccccc4n32)cc1F` (stereo not drawn), the TGI in the assay with SK-MEL-5 melanoma is 34.3 µM; with HL-60(TB) leukemia, 26.2 µM; in the assay with UACC-257 melanoma, greater than 100 µM; with TK-10 renal, 82.3 µM; in the assay on NCI-H23 lung it was 81.9 µM; in the assay on A549 NSCLC it was greater than 100 µM. For the same compound, the TGI in the assay on ACHN renal is greater than 100 µM.
`C#CCn1c(=O)c2cccnc2n(CC#C)c1=O`: the TGI with NCI-H226 lung, in the assay on SK-MEL-5 melanoma, in the assay on HL-60(TB) leukemia, with UACC-257 melanoma, with HOP-92 NSCLC and in the assay on TK-10 renal was greater than 100 µM each time. Also, the TGI in the assay with NCI-H23 lung, with A549 NSCLC and with ACHN renal was greater than 100 µM throughout.
Consider `COC(=O)c1nc(C(=O)OC)c2c([nH]c3ccccc32)c1C(=O)OC`, for which the TGI in the assay with NCI-H226 lung is greater than 100 µM; with SK-MEL-5 melanoma it was 95.1 µM; with UACC-257 melanoma, greater than 100 µM; in the assay with HOP-92 NSCLC, greater than 100 µM; with TK-10 renal, greater than 100 µM; in the assay on NCI-H23 lung, greater than 100 µM. This compound came in with a TGI in the assay on A549 NSCLC greater than 100 µM.
`NC(=S)N/N=C(\CCC(=O)Nc1ccccc1[N+](=O)[O-])CC(=O)c1ccco1`: the TGI in the assay on NCI-H226 lung, in the assay with SK-MEL-5 melanoma, with HL-60(TB) leukemia, with UACC-257 melanoma, in the assay on HOP-92 NSCLC and in the assay with TK-10 renal was greater than 100 µM each time. In addition, the TGI with NCI-H23 lung, with A549 NSCLC and in the assay with ACHN renal was greater than 100 µM in each case.
For the compound `CC(=O)SC(SC(C)=O)SC(C)=O`, the TGI in the assay with NCI-H226 lung, with SK-MEL-5 melanoma, in the assay on HL-60(TB) leukemia, with UACC-257 melanoma, in the assay with TK-10 renal and in the assay with NCI-H23 lung was greater than 100 µM throughout. For the same compound, the TGI in the assay with A549 NSCLC and in the assay on ACHN renal was greater than 100 µM each time.
For `O=C1C(=C([O-])c2ccccc2)C(=O)c2ccccc21.O=C1C(=C([O-])c2ccccc2)C(=O)c2ccccc21.[Co+2]`, the GI50 in the assay with NCI-H226 lung was greater than 100 µM; in the assay with SK-MEL-5 melanoma, greater than 100 µM; in the assay with UACC-257 melanoma, 90.8 µM; with HOP-92 NSCLC it was 62.4 µM; in the assay on TK-10 renal, greater than 100 µM; with NCI-H23 lung, greater than 100 µM. Also, the GI50 in the assay with A549 NSCLC and in the assay on ACHN renal was greater than 100 µM each time. For the same compound, the total growth inhibition concentration (TGI) in the assay with NCI-H226 lung, in the assay on SK-MEL-5 melanoma, in the assay on UACC-257 melanoma, in the assay with HOP-92 NSCLC, in the assay with TK-10 renal and with NCI-H23 lung was greater than 100 µM throughout. Moreover, the TGI in the assay with A549 NSCLC and with ACHN renal was greater than 100 µM each time.
